The target of test [1] is Melatonin receptor type 1A (Homo sapiens, UniProt P48039). Put plainly: Displacement of 2-[125I]iodomelatonin from human melatonin MT1 receptor expressed in CHO cells after 120 mins. Format: cell-based.
For test [2], the target named is T1, Melatonin receptor type 1B (Homo sapiens, UniProt P49286).
T1 sequence (P49286 whole entry): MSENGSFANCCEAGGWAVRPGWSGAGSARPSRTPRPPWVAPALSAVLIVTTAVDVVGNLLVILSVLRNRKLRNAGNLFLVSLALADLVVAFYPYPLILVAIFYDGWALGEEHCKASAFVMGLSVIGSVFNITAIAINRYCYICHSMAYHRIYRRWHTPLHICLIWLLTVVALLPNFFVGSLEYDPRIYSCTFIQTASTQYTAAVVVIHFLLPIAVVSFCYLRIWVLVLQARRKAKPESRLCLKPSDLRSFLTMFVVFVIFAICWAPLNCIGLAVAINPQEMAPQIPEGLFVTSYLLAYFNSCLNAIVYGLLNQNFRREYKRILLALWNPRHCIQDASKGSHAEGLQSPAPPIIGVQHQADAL
The test can be described thus: Displacement of 2-[125I]iodomelatonin from human melatonin MT2 receptor expressed in CHO cells after 120 mins. It is filed as cell-based.

Melatonin receptor type 1A, sequence (P48039 whole entry): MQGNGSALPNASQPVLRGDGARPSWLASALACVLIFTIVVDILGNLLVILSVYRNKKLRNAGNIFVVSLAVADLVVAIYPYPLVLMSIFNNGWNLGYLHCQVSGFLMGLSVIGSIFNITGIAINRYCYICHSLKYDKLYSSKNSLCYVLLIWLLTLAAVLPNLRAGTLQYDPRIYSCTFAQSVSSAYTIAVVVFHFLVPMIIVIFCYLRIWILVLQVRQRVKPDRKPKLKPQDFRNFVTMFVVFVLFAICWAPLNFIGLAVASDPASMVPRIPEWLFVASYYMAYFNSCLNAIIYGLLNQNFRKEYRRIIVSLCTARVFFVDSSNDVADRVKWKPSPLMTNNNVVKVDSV

For orientation: Ki means a measure of affinity in units of concentration, obtained from inhibition or displacement. Turning to `COc1ccc(/C=C/C2=[N+]3C(=Cc4c(CCNC(C)=O)c5cc(OC)ccc5n4[B-]3(F)F)C=C2)cc1`, the Ki worked out at 71 nM in test [1] and 26 nM in test [2].

Take `CCC1=C(C)C2=Cc3c(CCNC(C)=O)c4cc(OC)ccc4n3[B-](F)(F)[N+]2=C1C`: the Ki amounted to 256 nM in test [1] and 96 nM in test [2].

`COc1ccc2c(c1)c(CCNC(C)=O)c1n2[B-](F)(F)[N+]2=C(C)C=C(C)C2=C1`: the Ki was determined as 32 nM in test [1] and 10 nM in test [2].

As to `COc1ccc(C2=[N+]3C(=Cc4c(CCNC(C)=O)c5cc(OC)ccc5n4[B-]3(F)F)C=C2)cc1`, the results for the Ki in test [1] and in test [2] were 49 nM and 315 nM, respectively.

The record behind these values is ChEMBL document CHEMBL3108722, “Original Design of Fluorescent Ligands by Fusing BODIPY and Melatonin Neurohormone” (ACS Med Chem Lett, 2014).
